Experimental data: US5847047A, “Antimicrobial composition of a polymer and a peptide forming amphiphilic helices of the magainin-type” (priority 1995, dated 1998)
Where a SMILES comes first, the peptide text is derived from it. Where no end group is shown, it is not given here.

Tests used:
[1] = system: E. coli; assay: Antimicrobial activity of soluble oligopeptides, microtiter growth inhibition (MIC); type: cell-based; conditions: soluble peptide, LB broth, 37° C.
Description: (§1) The term "MIC" refers to minimal inhibitory concentration and will be defined as the lowest concentration of either soluble peptide or peptide immobilized on a polymer that results in total kill of bacteria.
(§2) Typically, assays for antimicrobial activity of soluble oligopeptide compositions were carried out in microtiter wells. Each well was charged with 150 μl of LB broth containing cells at a final concentration of between 1×10^6 to 1×10^7 cells/ml and oligopeptide at final concentrations of 1×10^-3 to 1×10^-6 M. It is preferred that the oligopeptides be dissolved in water prior to addition to the assay medium and that cells be inoculated from mid-log phase cultures. […] Cultures showing cell growth inhibition were incubated for an additional 15 hr. at which time a final absorbance reading was taken. FIGS. 4a-d illustrate the cell growth inhibition of E. coli cultures incubated in the presence of various oligopeptides.
(§3) All manipulations with microorganisms involved the application of standard sterile techniques employed in microbiology. All cells were grown at 37° C. Cell concentration was measured by optical density measurements at 600 nm in a Perkin Elmer Model 552 UV/VIS spectrophotometer. The microorganisms used were strains of E. coli. and S. aureus. On the day prior to the assay, an overnight culture was prepared. On the following morning, the stationary phase cells were subcultured and allowed to grow to mid-log phase.
(§4) Each well was charged with LB Broth (150 mcL). The oligopeptide samples were dissolved in water and were added to achieve the appropriate final oligopeptide concentrations (ranging from 1×10^-3 to 1×10^-6 M) Finally, cells suspended in LB medium were added to a final concentration of between 1×10^6 to 1×10^7 cells/mL. The microtiter plate was covered and allowed to gently rotate in an orbital shaker. […] Control samples used for all experiments were: (a) LB broth only=uninoculated control; (b) LB broth only+cells=inoculated control.
In FIGS. 4a-d cell growth inhibition is plotted as molar concentration of antimicrobial peptide as a function of the number of cells killed/ml. FIG. 4a-d illustrates the activity of the core oligopeptide, the N-addition analogue of formula II, the N-addition analogue of formula III, and the N-addition analogue of formula IV, respectively. All cultures were actively growing in log-phase and at a cell concentration of 2.0×10^7 cells/ml.

[2] = system: S. aureus; assay: as above; type: cell-based; conditions: soluble peptide, LB broth, 37° C.
Description: as §1, §2, §3, §4

[3] = system: E. coli; assay: Shake flask method for peptides covalently bound to polyamide resin (CFU count); type: cell-based; conditions: for MIC E. coli: concentration of oligopeptide immobilized on PepsynK resin via EDA linker, shake flask, phosphate buffer pH 7.2, 37° C.; for % Reduction E. coli: immobilized peptide on EDA-PepsynK, determined as described in Example 9
Description: (§5) Occasionally, a shake flask method was employed for insoluble articles. In the shake flask method, 75 mL of 0.6 mM phosphate buffer, pH 7.2 and 0.100 mL of the stock cell culture and the oligopeptide sample were added to a 250 mL polystyrene tissue culture flask. The flasks were incubated in a shaking water bath at 37° C. At specified times (1 hour and 24 hours), an aliquot (0.100 mL) was removed from the shake flask and serial dilutions ranging from 10 to 1000-fold were made to allow the enumeration of cells on agar plates. Each agar plate was inoculated with 0.200 mL of the diluted cell suspension, and the suspension was uniformly spread on the plate. Colony-forming units CFU on the agar plates were counted after 24 hours in an incubator (37° C.). Cells were identified by visual observation and use of a colony counter. Total CFU/mL was determined by correcting the cell count for the dilution factor.
Samples of peptides corresponding to the amino acid sequences SEQ ID NO:8, SEQ ID NO:13, SEQ ID NO:14, SEQ ID NO:15 and SEQ ID NO:1, were covalently linked to the polyamide resin PepSyn K as described in Example 10 and were tested for antimicrobial activity. Five compositions (PEPSYNK-LKP, PEPSYNK-LKPGK, PEPSYNK-LKPG2 K, PEPSYNK-LKPG3 K, and PEPSYNK-KGLKP) were tested over a range of 0 to 5 mg/ml of oligopeptide. Since the covalently linked oligopeptide/polymer compositions were insoluble, the protocol for testing antimicrobial activity was modified from that for the soluble peptide compositions of Example 2. Here, a shake flask method was employed.
as §5, with “In” for “Occasionally, a shake flask method was employed for insoluble articles. In”, “oligopeptide samples, ranging from 0 to 5 mg/ml of oligopeptide” for “oligopeptide sample”, “dilutions were made” for “dilutions”, “1000-fold” for “1000-fold were made”, “enumeration or” for “enumeration of”, “factor. In this manner the minimal inhibitory concentration (MIC) of oligopeptide for covalently linked compositions corresponding to PEPSYNK-LKP, PEPSYNK-LKPGK, PEPSYNK-LKPG2 K, PEPSYNK-LKPG3 K, and PEPSYNK-KGLKP were determined.” for “factor.”
The bactericidal activity for each immobilized peptide was determined as described in Example 9. The structures and the bactericidal activities of the immobilized peptides are shown in Table V. The relative activities against E. coli are consistent with what is known about the soluble peptides. […] The reverse magainin is a much poorer bactericide than its normal sequence.

[4] = system: human erythrocytes
Description: A 5.0% stock cell solution of human erythrocytes in phosphate buffered saline (PBS) was prepared by suspending 2.0 mL packed human erythrocytes in 38 mL of phosphate buffered saline (10 mM sodium phosphate, 120 mM sodium chloride, 2.7 mM potassium chloride, pH 7.5). Samples of the four compositions recited above were added to microfuge tubes containing 0.5 mL of cell solution and 0.5 mL of PBS. Upon addition of sample, the vials were capped, gently homogenized, then allowed to gently shake in an incubator at 37° C. for 30 minutes. The samples were centrifuged to sediment the cells. The supernatants were transferred to cuvettes and the absorbances at 414 nm were read in a Perkin Elmer 552 spectrophotometer. The 0 and 100% hemolysis controls were PBS and PBS +1.0% Triton X-100, respectively.

Row | Molecule | Minimal Inhibitory Concentration E. coli [1] | Minimal Inhibitory Concentration S. aureus [2] | MIC E. coli [3] | % Hemolysis at >6 mg/mL [4] | % Reduction E. coli [3]
1 | CC(C)C[C@H](NC(=O)[C@H](CCCCN)NC(=O)[C@H](CC(C)C)NC(=O)[C@H](CC(C)C)NC(=O)[C@H](CCCCN)NC(=O)[C@H](CCCCN)NC(=O)[C@H](CC(C)C)NC(=O)[C@H](CC(C)C)NC(=O)[C@H](CCCCN)NC(=O)[C@H](CC(C)C)NC(=O)[C@H](CC(C)C)NC(=O)[C@H](CCCCN)NC(=O)[C@H](CCCCN)NC(=O)[C@H](CC(C)C)NC(=O)CNC(=O)CNC(=O)CNC(=O)[C@@H](N)CCCCN)C(=O)O [Formula IV, KGGGLKKLLKLLKKLLKL] (H-KGGGLKKLLKLLKKLLKL-OH) | 7.8 µg/mL | 15.6 µg/mL | – | – | –
2 | PepsynK-LKPG3K: peptide SEQ ID NO:15 covalently linked to polyamide resin PepSyn K via non-cleavable EDA linker (LKLLKKLLKLLKKLGGGK; also: covalently linked to PepSyn K resin via EDA linker) | – | – | 938 µg/mL | 12.7% | –
3 | CC(C)C[C@H](NC(=O)[C@H](CCCCN)NC(=O)[C@H](CC(C)C)NC(=O)[C@H](CC(C)C)NC(=O)[C@H](CCCCN)NC(=O)[C@H](CCCCN)NC(=O)[C@H](CC(C)C)NC(=O)[C@H](CC(C)C)NC(=O)[C@H](CCCCN)NC(=O)[C@H](CC(C)C)NC(=O)[C@H](CC(C)C)NC(=O)[C@H](CCCCN)NC(=O)[C@H](CCCCN)NC(=O)[C@H](CC(C)C)NC(=O)CNC(=O)[C@@H](N)CCCCN)C(=O)O [Formula II, KGLKKLLKLLKKLLKL] (H-KGLKKLLKLLKKLLKL-OH) | 7.8 µg/mL | 15.6 µg/mL | – | – | –
4 | CC(C)C[C@H](NC(=O)[C@H](CCCCN)NC(=O)[C@H](CC(C)C)NC(=O)[C@H](CC(C)C)NC(=O)[C@H](CCCCN)NC(=O)[C@H](CCCCN)NC(=O)[C@H](CC(C)C)NC(=O)[C@H](CC(C)C)NC(=O)[C@H](CCCCN)NC(=O)[C@H](CC(C)C)NC(=O)[C@H](CC(C)C)NC(=O)[C@H](CCCCN)NC(=O)[C@H](CCCCN)NC(=O)[C@@H](N)CC(C)C)C(=O)O [Formula I] (H-LKKLLKLLKKLLKL-OH) | 15.6 µg/mL | 31.2 µg/mL | – | – | –
5 | CC(C)C[C@H](NC(=O)[C@H](CCCCN)NC(=O)[C@H](CC(C)C)NC(=O)[C@H](CC(C)C)NC(=O)[C@H](CCCCN)NC(=O)[C@H](CCCCN)NC(=O)[C@H](CC(C)C)NC(=O)[C@H](CC(C)C)NC(=O)[C@H](CCCCN)NC(=O)[C@H](CC(C)C)NC(=O)[C@H](CC(C)C)NC(=O)[C@H](CCCCN)NC(=O)[C@H](CCCCN)NC(=O)[C@H](CC(C)C)NC(=O)CNC(=O)CNC(=O)[C@@H](N)CCCCN)C(=O)O [Formula III, KGGLKKLLKLLKKLLKL] (H-KGGLKKLLKLLKKLLKL-OH) | 7.8 µg/mL | 62.5 µg/mL | – | – | –
6 | V-F-A-K-G-F-K-K-A-S-H-L-F-K-G-I-G (VFAKGFKKASHLFKGIG; immobilized on EDA-PepsynK resin) [EDA-PepsynK magainin 17-mer deletion, 17-mer deletion peptide of magainin 2 immobilized on EDA-modified PepsynK resin] | – | – | – | – | 99.3%
7 | PepsynK-LKPG2K: peptide SEQ ID NO:14 covalently linked to polyamide resin PepSyn K via non-cleavable EDA linker (LKLLKKLLKLLKKLGGK; also: covalently linked to PepSyn K resin via EDA linker) | – | – | 1208 µg/mL | 1.2% | –
8 | Pepsynk-LKP: peptide SEQ ID NO:8 covalently linked to polyamide resin PepSyn K via non-cleavable EDA linker (LKKLLKLLKKLLKL; also: covalently linked to PepSyn K resin via EDA linker) | – | – | 807 µg/mL | 0.9% | –
9 | PepsynK-KGLKP: peptide SEQ ID NO:1 covalently linked to polyamide resin PepSyn K via non-cleavable EDA linker (KGLKKLLKLLKKLLKL; also: covalently linked to PepSyn K resin via EDA linker) | – | – | 888 µg/mL | > 0.7% | –
10 | GIGKFLHSAKKFGKAFVGEIMNS (GIGKFLHSAKKFGKAFVGEIMNS; immobilized on EDA-PepsynK resin) [EDA-PepsynK reverse magainin2, reverse magainin 2 peptide immobilized on EDA-modified PepsynK resin] | – | – | – | – | 95.14%
11 | PepsynK-LKPGK: peptide SEQ ID NO:13 covalently linked to polyamide resin PepSyn K via non-cleavable EDA linker (LKLLKKLLKLLKKLGK; also: covalently linked to PepSyn K resin via EDA linker) | – | – | 2213 µg/mL | 0.7% | –
12 | SNMIEGVFAKGFKKASHLFKGIG (SNMIEGVFAKGFKKASHLFKGIG; immobilized on EDA-PepsynK resin) [EDA-PepsynK magainin2, magainin 2 immobilized on EDA-modified PepsynK resin] | – | – | – | – | 100%
